# Values of other authors, collected in paper PMC11539907, “Cytotoxicity of norstictic acid derivatives, a depsidone from Ramalina anceps Nyl” (Turkish Journal of Chemistry, 2024).
# Where two headings read alike, the source gives them in different places.
# Legend:
# [1] = test system: MCF-10A mammary epithelial cells; set-up: method as in PMID 26744260; conditions: cited from earlier work
# [2] = test system: tested tumor cells (786-0, MCF7, HT-29, PC-03, HEP2, B16-F10, UACC-62); conditions: cited from earlier work; for cytotoxic activity in words: panel of tumor cells
# [3] = test system: MCF7 (breast carcinoma) cells; set-up: method as in Bogo et al. (2020); conditions: ref Bogo et al. (2020), cited from earlier work
# [4] = test system: B16-F10 (murine melanoma) cells; set-up: method as in Brandão et al. (2013); conditions: ref Brandão et al. (2013), cited from earlier work
# [5] = test system: HT-29 (colon carcinoma) cells; set-up: method as in Bogo et al. (2020); conditions: ref Bogo et al. (2020), cited from earlier work
# TNBC MDA-MB-231 cells = test system: TNBC MDA-MB-231 cells; set-up: method as in PMID 26744260; conditions: cited from earlier work
# [6] = test system: UACC-62 (human melanoma) cells; conditions: cited from earlier work
# [7] = test system: NIH/3T3 (mouse embryonic fibroblast) cells; set-up: method as in Bogo et al. (2020); conditions: NIH/3T3 normal cells; ref Bogo et al. (2020); read-out: growth inhibition (GI50); cited from earlier work
# [8] = test system: PC-03 (prostate carcinoma) cells; set-up: method as in Bogo et al. (2020); conditions: ref Bogo et al. (2020), cited from earlier work
# [9] = test system: HEP2 (laryngeal carcinoma) cells; set-up: method as in Bogo et al. (2020); conditions: ref Bogo et al. (2020), cited from earlier work
# [10] = test system: 786-0 (kidney carcinoma) cells; set-up: method as in Bogo et al. (2020); conditions: ref Bogo et al. (2020), cited from earlier work
# [11] = test system: MDA-MB-231/GFP cells implanted into athymic female nude mice; set-up: method as in PMID 26744260; conditions: cited from earlier work
smiles,measurement,setting,value
"Cc1cc(O)c(C=O)c2c1C(=O)Oc1c(C)c(O)c3c(c1O2)C(O)OC3=O (stereo not shown) [compound 1, Norstictic acid]",toxicity to nontumorogenic cells in words,[1],minimal toxicity
same,GI50,"[2]; MCF7, HEP2, PC-03, B16-F10, and UACC-62 cells, ref Bogo et al. (2020), Brandão et al. (2013), read-out: GI50, range",88.4 to 191 µM
same,cytotoxic activity in words,[2]; listed as Norstictic acid,poor activity
same,cytotoxic activity in words,[2]; listed as norstictic acid,low cytotoxic activity
same,selectivity index (SI),[3]; 3T3 vs MCF7,4.3
same,GI50,"[3]; MCF7 cells, read-out: growth inhibition (GI50)",162 µM
same,selectivity index (SI),[4]; 3T3 vs B16-F10,>4.1
same,GI50,"[4]; B16-F10 cells, read-out: growth inhibition (GI50)",168 µM
same,selectivity index (SI),"[5]; 3T3 vs HT-29, from literature GI50 values",0.7
same,GI50,"[5]; HT-29 cells, read-out: growth inhibition (GI50)",916 µM
same,"proliferation, migration, and invasion in words",TNBC MDA-MB-231 cells,"significantly suppressed the proliferation, migration, and invasion"
same,selectivity index (SI),"[6]; 3T3 vs UACC-62, ref Brandão et al. (2013)",>7.6
same,GI50,"[6]; UACC-62 cells, ref Brandão et al. (2013), read-out: growth inhibition (GI50)",88.4 µM
same,growth inhibition effect (GI50),[6]; UACC-62 human melanoma cells,32.9 µg/mL
same,GI50,[7],696 µM
same,selectivity index (SI),[8]; 3T3 vs PC-03 (PC-3),3.6
same,GI50,"[8]; PC-03 cells, read-out: growth inhibition (GI50)",191 µM
same,selectivity index (SI),[9]; 3T3 vs HEP2,4.4
same,GI50,"[9]; HEP2 cells, read-out: growth inhibition (GI50)",157 µM
same,selectivity index (SI),"[10]; 3T3 vs 786-0, from literature GI50 values",0.9
same,GI50,"[10]; 786-0 cells, read-out: growth inhibition (GI50)",759 µM
same,in vivo effect on tumor growth in words,[11],tolerability and significant inhibitory effect
